Key:
[1] = Feeding study in dietary-induced obese rats: food intake and body weight; assay type: in vivo, female Wistar rats; settings: end of 28 day treatment, Figure 3
Protocol: The experiment was performed on female Wistar rats (originally in the weight range 250-300 g). The rats were housed in pairs in polypropylene cages with solid floors and sawdust bedding at a temperature of 21±4°C and 55±20% humidity. Animals were maintained on a reverse phase light-dark cycle (lights off for 8 h from 09.30-17.30 h) during which time the room was illuminated by red light. Animals had free access to powdered high fat diet (VRF1 plus 20% lard), ground chocolate, ground peanuts and tap water at all times. The three different diets were contained in separate glass feeding jars with aluminum lids with a 3-4 cm hole cut in it to allow access to the food. Animals were housed in pairs for twelve weeks for the induction of obesity. Animals were then housed singly in polypropylene cages with wire grid floors to enable the food intake of each rat to be recorded. Polypropylene trays with cage pads were placed beneath each cage to detect any food spillage. Animals were accustomed to these new conditions (individual housing and the wire-grid floor cages) for at least 14 days before the start of the baseline readings. […] Food intake and body weight were measured once daily. […] Thus, means were adjusted for differences in body weight between the groups on Day 1 and standard errors of the mean (SEM) were calculated from the residuals of the statistical model. […]

[2] = target: T1, recombinant human cannabinoid 1 receptor (CB1) (Homo sapiens, UniProt P21554); assay: In vitro determination of antagonism to CB1-receptor, [35S]GTPγS binding assay; assay type: biochemical; settings: compound 1 µM versus agonist WIN 55,212-2; 100 % = maximal antagonism with Rimonabant (1 µM)
T1 construct: expressed in transfected cells
Protocol: The reaction is performed in 96-well plates. […] Radioactivity is determined using a Wallac Microbeta Trilux. Each experiment is performed at least in duplicate.
The average of basal [^35S]GTPγS binding is subtracted from all binding data.

[3] = Plasma insulin assay in dietary-induced obese rats; assay type: in vivo, female Wistar rats; settings: Figure 6
Protocol: (§1) The experiment was performed on female Wistar rats (originally in the weight range 250-300 g). The rats were housed in pairs in polypropylene cages with solid floors and sawdust bedding at a temperature of 21±4°C and 55±20% humidity. Animals were maintained on a reverse phase light-dark cycle (lights off for 8 h from 09.30-17.30 h) during which time the room was illuminated by red light. Animals had free access to powdered high fat diet (VRF1 plus 20% lard), ground chocolate, ground peanuts and tap water at all times. The three different diets were contained in separate glass feeding jars with aluminum lids with a 3-4 cm hole cut in it to allow access to the food. Animals were housed in pairs for twelve weeks for the induction of obesity. Animals were then housed singly in polypropylene cages with wire grid floors to enable the food intake of each rat to be recorded. […] Animals were accustomed to these new conditions (individual housing and the wire-grid floor cages) for at least 14 days before the start of the baseline readings. […] Plasma insulin concentration was determined using Mercodia ultrasensitive rat insulin ELISA kits according to the manufacturers 50 µl sample protocol. […] Optical density at 450 nm was determined using a Molecular Devices VERSAmax tunable microplate reader and readings transferred to GraphPad Prism. […]

[4] = Plasma leptin assay in dietary-induced obese rats; assay type: in vivo, female Wistar rats; settings: Figure 5
Protocol: as §1, with “leptin” for “insulin”, “Assay Designs” for “Mercodia ultrasensitive”, “leptin enzyme immunometric assay” for “insulin ELISA”, “kits (Cat No. 900-015)” for “kits”, “manufacturer's regular” for “manufacturers 50 µl sample”

[5] = Determination of carcass fat content in dietary-induced obese rats; assay type: in vivo, female Wistar rats; settings: g per rat, Figure 4
Protocol: The experiment was performed on female Wistar rats (originally in the weight range 250-300 g). The rats were housed in pairs in polypropylene cages with solid floors and sawdust bedding at a temperature of 21±4°C and 55±20% humidity. Animals were maintained on a reverse phase light-dark cycle (lights off for 8 h from 09.30-17.30 h) during which time the room was illuminated by red light. Animals had free access to powdered high fat diet (VRF1 plus 20% lard), ground chocolate, ground peanuts and tap water at all times. The three different diets were contained in separate glass feeding jars with aluminum lids with a 3-4 cm hole cut in it to allow access to the food. Animals were housed in pairs for twelve weeks for the induction of obesity. Animals were then housed singly in polypropylene cages with wire grid floors to enable the food intake of each rat to be recorded. […] Animals were accustomed to these new conditions (individual housing and the wire-grid floor cages) for at least 14 days before the start of the baseline readings. […] Percentage fat in the freeze-dried sample was calculated as follows: % fat = [100 × (final cup weight-initial cup weight)]/sample weight [formula] Percentage fat in the original sample was calculated using the % water as follows: % fat in original sample = % fat[(100-%water)/100] […]

[6] = Stability of the crystalline form; assay type: physicochemical; settings: under certain conditions, especially around room temperature, and/or over time
[7] = Solubility; assay type: physicochemical
[8] = target: Herg channel (Homo sapiens, UniProt Q12809); assay: Herg channel affinity; settings: low risk of prolongation of the QT-interval expected
[9] = 10 mg/kg po once daily for 28 days
[10] = 30 mg/kg po once daily for 28 days

Chain of Herg channel (Q12809 whole entry): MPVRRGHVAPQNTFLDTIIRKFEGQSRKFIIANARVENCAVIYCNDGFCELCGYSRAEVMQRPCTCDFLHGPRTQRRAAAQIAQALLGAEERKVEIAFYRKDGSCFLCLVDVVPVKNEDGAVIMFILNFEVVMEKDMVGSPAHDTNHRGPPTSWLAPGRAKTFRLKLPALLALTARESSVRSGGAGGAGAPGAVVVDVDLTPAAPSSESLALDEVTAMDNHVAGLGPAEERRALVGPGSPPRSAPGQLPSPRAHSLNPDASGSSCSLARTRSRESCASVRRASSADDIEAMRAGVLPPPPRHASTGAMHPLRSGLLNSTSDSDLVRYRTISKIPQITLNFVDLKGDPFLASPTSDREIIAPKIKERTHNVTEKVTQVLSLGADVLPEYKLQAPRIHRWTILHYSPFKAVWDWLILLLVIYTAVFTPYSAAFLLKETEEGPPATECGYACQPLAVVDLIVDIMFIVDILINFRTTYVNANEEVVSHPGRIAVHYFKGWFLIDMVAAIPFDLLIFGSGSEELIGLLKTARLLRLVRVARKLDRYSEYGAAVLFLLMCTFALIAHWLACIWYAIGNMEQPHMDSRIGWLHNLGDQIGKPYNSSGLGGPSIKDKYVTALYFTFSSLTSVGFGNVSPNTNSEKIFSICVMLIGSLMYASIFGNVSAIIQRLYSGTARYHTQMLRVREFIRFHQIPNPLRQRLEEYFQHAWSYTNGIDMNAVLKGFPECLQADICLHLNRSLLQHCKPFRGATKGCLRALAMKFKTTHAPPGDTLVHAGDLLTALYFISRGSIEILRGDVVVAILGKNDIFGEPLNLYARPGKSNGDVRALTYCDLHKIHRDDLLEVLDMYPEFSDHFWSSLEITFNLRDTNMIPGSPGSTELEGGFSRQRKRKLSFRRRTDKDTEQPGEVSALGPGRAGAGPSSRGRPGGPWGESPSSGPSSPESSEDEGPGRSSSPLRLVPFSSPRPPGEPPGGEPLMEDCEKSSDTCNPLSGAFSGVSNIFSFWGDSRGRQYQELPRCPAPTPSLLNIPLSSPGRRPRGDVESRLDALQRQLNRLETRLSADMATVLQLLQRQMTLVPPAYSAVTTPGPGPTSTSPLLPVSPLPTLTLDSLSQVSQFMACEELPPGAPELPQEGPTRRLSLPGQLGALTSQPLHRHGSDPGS
T1 sequence (P21554 whole entry): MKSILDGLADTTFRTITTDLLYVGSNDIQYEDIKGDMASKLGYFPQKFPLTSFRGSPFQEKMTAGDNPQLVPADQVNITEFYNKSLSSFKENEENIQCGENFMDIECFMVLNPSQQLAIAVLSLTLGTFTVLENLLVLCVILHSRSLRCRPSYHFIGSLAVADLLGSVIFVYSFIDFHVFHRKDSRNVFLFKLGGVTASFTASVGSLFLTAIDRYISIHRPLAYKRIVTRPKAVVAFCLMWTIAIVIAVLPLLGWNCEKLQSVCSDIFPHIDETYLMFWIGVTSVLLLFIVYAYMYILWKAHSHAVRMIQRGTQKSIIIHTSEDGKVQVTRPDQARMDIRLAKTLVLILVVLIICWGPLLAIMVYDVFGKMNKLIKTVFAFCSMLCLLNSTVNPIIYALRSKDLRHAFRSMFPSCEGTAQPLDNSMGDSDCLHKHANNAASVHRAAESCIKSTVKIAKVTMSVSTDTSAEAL

| Structure (SMILES) | body weights lower than those of the vehicle-treated controls ([1]; 10 mg/kg po once daily) [%] | body weights lower than those of the vehicle-treated controls ([1]; 30 mg/kg po once daily) [%] | Antagonism [%] [2] [%] | decrease of plasma insulin levels compared to the vehicle-treated control group [3, 9] [%] | decrease of plasma insulin levels compared to the vehicle-treated control group [3, 10] [%] | decrease of plasma leptin levels compared to the vehicle-treated control group [4, 9] [%] | decrease of plasma leptin levels compared to the vehicle-treated control group [4, 10] [%] | decrease in body fat compared to the vehicle-treated control group [5, 9] [g] | decrease in body fat compared to the vehicle-treated control group [5, 10] [g] | stability [6] | solubility [7] | Herg channel affinity [8] |
| --- | --- | --- | --- | --- | --- | --- | --- | --- | --- | --- | --- | --- |
| O=C(NN1CCCCC1)C1=NN(c2ccc(Cl)cc2Cl)[C@@H](c2ccc(Cl)cc2)C1 [Compound A, (R)-N-piperidinyl-5-(4-chlorophenyl)-1-(2,4-dichlorophenyl)-4,5-dihydro-1H-pyrazole-3-carboxamide] | 12.0 | 19.0 | 106 | 38.9 | 41.8 | 36.1 | 61.7 | 42.8 | 67.8 | – | – | – |
| O=C(NN1CCCCC1)C1=NN(c2ccc(Cl)cc2Cl)[C@@H](c2ccc(Cl)cc2)C1 [α-Polymorph, α-Polymorph of (R)-N-piperidinyl-5-(4-chlorophenyl)-1-(2,4-dichlorophenyl)-4,5-dihydro-1H-pyrazole-3-carboxamide] | – | – | – | – | – | – | – | – | – | good stability | relatively good | relatively weak |

From EP1944293A1, “Alpha-Polymorph of a substituted pyrazoline, its preparation and use as medicaments” (Laboratorios del Dr. Esteve S.A., priority 2007, dated 2008)
